Test results as given in patent US20260125736A1, “FURIN SENSORS AND APPLICATIONS THEREOF” (FLAREON BIOTECH GMBH, priority 2023, published 2026).
Primed or numbered codes have the meaning given here. Ends that are not written are not given here. * marks the point of attachment. Dabcyl′ = 4-((4-(dimethylamino)phenyl)azo)benzoic acid, CN(C)c1ccc(/N=N/c2ccc(C(=O)*)cc2)cc1; EDANS = O=S(=O)(O)c1cccc2c(NCCN*)cccc12

Legend:
[1] = system: HNSCC tissue; type: cell-based, human
[2] = molecular target: T1, furin (Homo sapiens, UniProt P09958); experiment: Cleavage of FRET sensors by furin / illumination of C1S; type: biochemical; conditions: C1S 10 μM incubated with furin for 60 min, illuminated at 350 nm; compared with C1S without furin
T1 sequence (P09958 108-794): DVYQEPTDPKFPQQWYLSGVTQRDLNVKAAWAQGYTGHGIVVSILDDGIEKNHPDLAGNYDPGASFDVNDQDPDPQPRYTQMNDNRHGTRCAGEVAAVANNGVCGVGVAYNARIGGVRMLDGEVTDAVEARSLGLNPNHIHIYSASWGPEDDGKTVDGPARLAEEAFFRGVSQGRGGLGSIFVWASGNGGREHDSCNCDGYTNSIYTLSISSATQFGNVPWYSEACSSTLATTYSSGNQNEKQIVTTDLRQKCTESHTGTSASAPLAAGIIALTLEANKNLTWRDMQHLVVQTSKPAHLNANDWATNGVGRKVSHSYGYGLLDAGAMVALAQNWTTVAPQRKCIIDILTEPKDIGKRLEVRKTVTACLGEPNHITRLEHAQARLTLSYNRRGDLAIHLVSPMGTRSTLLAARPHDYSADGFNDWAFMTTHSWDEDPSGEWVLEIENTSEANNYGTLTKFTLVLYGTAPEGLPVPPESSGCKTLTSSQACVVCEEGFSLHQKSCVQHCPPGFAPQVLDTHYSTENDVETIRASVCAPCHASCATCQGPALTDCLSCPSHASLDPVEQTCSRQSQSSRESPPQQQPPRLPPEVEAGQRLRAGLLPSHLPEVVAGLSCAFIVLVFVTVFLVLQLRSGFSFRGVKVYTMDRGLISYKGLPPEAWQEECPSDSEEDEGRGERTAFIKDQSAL
Method: Negative controls were performed without furin. Experiments were performed n=3. The samples were analyzed using an Infinite M plex (Tecan trading AG, Mannedorf, Switzerland) with an excitation wavelength of λ=340 nm and an emission wavelength of A =490 nm.
Sensor C1S was incubated as described before under cleavage of FRET sensors with and without furin for 60 min and illuminated via Universal UV Lampe (CAMAG, Germany) with λ=350 nm.

[3] = system: HNSCC tumor tissue; experiment: FRET-based sensor tissue incubation (fluorescence, ex 340 nm / em 490 nm); type: cell-based, human; conditions: 10 μM sensor, incubation over 60 min, 37° C., cleavage determined against blank (intact sensor)
Method: All included patients were diagnosed with primary oral squamous cell carcinoma (OSCC). Patients suffering from other tumor entities as well as inoperable cases were excluded from this study.
After performing preoperative tumor staging and incisional biopsy to confirm the diagnosis, stage-appropriate tumor resection, lymph-node dissection, and reconstruction took place. Tumor resection was performed in the usual way, which included using separate margins for frozen section analysis in order to confirm in sano resection. […]
Tissues were stored on ice in sterile filtered in cell culture medium (RPMI-1640, Dutch modification, 10% FCS, 1% Penicillin/Streptomycin, Nystatin). […] After the 24h incubation, one of the tumor tissues was analyzed using FDA. […] The tumor tissue was incubated for 5 min and analyzed via Axio Observer.Z1 microscope equipped with an A-Plan 10×/0.25 Ph1 objective (Zeiss), 38 HE Green Fluorescent Protein (λex=450-490 nm, λem=500-550 nm) and a mercury vapor short-arc lamp.
Tissues were prepared as described before. […] The tissues were incubated at 37° C. and analyzed at t=0, 5, 10, 15, 20, 25, 30, 40, 50 and 60 min via an Infinite M plex (Tecan trading AG, Mannedorf, Switzerland) with an excitation wavelength of λ=340 nm and an emission wavelength of λ=490 nm. […]

[4] = molecular target: T1, furin; experiment: Peptide cleavage by furin, analysed by HPLC (AUC of main peak vs negative control without furin); conditions: cleavage of PSL via furin within 15 min; 0.1 mM peptide, 1 U furin, 37° C., n=3
Method: Lyophilized peptides were solubilized in furin buffer (100 mM HEPES pH 7.5, 5 mM CaCl2) to 1 mM stock solutions. Cleavage was performed at 37° C. under rigorous shaking in 30 μL furin buffer containing 0.1 mM of the respective peptide and 1 U furin per reaction. The reaction was stopped via addition of 5 mM EDTA final concentration. Experiments were performed n=3.
Analytical HPLC was carried out via an Agilent 1260 infinity II HPLC (Agilent Technologies Inc., Waldbronn, Germany) using a Zorbax 300SB-CN 5 μm analytical 4.6×150 mm LC column (Agilent Technologies Inc., Waldbronn, Germany) The device was equipped with a diode array detector (G7115A, Agilent), a fluorescence detector (G7121A, Agilent), an automatic vial sampler (G7129C, Agilent), flexible Pump (G7104C, Agilent), and multicolumn oven (G7116A, Agilent). Mobile phase A was 0.1% TFA in Millipore water. Mobile phase B was ACN with 0.1% TFA, flow was set to 1 ml/min, injection volume was 15 μl, and the wavelength of the detector was set to A=214 nm. […]
Cleavage percent was analyzed by comparing the area under the curve (AUC) of the main peak from the respective peptide incubated with furin, compared to a negative control without furin.

Substance	time after which a fluorescent signal difference between HNSCC and healthy tissue is visually recognizable [1] [min]	visual difference between healthy and HNSCC tissues in the first 30 minutes [1]	fluorescence observed visually after incubation with furin [2]	fold increase of sensor cleavage of the tumor tissue compared to healthy tissue [3] [fold]	Cleavage [4] [%]
Ac-EG-K(Dabcyl)-RTAMTAGA-E(Edans)-GE (Ac-EGK(Dabcyl′)RTAMTAGAE(EDANS)GE) [Z3S]	35	no difference could be observed			
Ac-K(Dabcyl)-RRARSVAS-E(Edans) (Ac-K(Dabcyl′)RRARSVASE(EDANS)) [C1S]	5		distinct cyan fluorescence	> 2	
RTAMSAGA [Z5]					26.16
